The target in the assay is T1, 5-lipoxygenase (Homo sapiens, UniProt P09917).
T1 construct: the 5-LO activity in human whole blood; from tissue; host or cells: heparinized human whole blood
T1 sequence (P09917 1-674): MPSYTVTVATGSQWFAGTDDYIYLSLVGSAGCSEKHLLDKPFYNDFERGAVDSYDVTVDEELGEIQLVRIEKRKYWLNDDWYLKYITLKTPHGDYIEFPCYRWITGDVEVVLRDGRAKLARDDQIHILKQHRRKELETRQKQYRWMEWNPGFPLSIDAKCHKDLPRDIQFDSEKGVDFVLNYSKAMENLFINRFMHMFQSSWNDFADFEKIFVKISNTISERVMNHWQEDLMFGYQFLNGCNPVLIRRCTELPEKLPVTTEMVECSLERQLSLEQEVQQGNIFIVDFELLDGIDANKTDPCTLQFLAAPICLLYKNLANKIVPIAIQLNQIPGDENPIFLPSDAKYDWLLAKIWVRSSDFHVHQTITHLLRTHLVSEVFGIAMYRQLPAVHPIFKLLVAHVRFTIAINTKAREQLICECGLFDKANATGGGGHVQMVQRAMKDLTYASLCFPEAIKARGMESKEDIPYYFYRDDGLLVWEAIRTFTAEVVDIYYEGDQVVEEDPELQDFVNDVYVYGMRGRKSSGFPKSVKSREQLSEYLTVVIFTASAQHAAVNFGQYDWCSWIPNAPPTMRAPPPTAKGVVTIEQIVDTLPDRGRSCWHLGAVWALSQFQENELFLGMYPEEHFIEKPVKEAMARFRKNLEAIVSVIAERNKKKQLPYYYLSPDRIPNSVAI
Briefly: 5-lipoxygenase inhibition in human blood (LTB4 formation). To be noted: 0.5 h; 10^-5 mole/liter; human whole blood, 37° C.; read-out: In vitro % inhibitory activity on LTB4 formation in human blood stimulated by calcimycin. Format: cell-based. As to the method: 4c. In vitro determination of 5-lipoxygenase inhibition in human blood.
The inhibitory activity of the test substances on the 5-LO activity in human whole blood taking place after stimulation by calcimycin is investigated according to the method described by P. Gresele et al. (Biochem. Biophys. Commun. 137 (1986), 334).
For carrying out the test, human blood is collected in sterile 50 ml test tubes which contain 10 units of heparin/ml of blood and incubated for 5-10 minutes at 37° C. Amounts of test substance, dissolved in 10 μl of dimethylformamide, are added to 2 ml samples of this blood such that a final concentration of test substance of 10 μmol/l is achieved in the samples. Only 10 μl of the solvent were added to control samples. The samples were then incubated for 10 minutes at 37° C. In order to stimulate LTB4 synthesis, an amount of calcimycin, dissolved in 200 μl of plasma, was added to the samples such that a calcimycin concentration of 60 μmol/l was achieved, and the samples were incubated for a further 30 minutes at 37° C. The reaction was then terminated by addition of 200 μl of an ethylene glycol tetraacetate solution (corresponding to an ethylene glycol acetate concentration in the sample of 100 mmol/l). The samples are kept in an ice-bath for 10 minutes and then centrifuged (5 minutes at 1000×g). The supernantant liquids, which contain the LTB4 formed during the reaction time, are each separated and, for precipitation of the proteins contained therein, mixed with 3 ml of acetone and kept for 45 minutes at 4° C. Then the samples are centrifuged again (5 minutes at 1500×g), the supernatant liquids are separated, and the content of LTB4 therein is determined in a known manner by means of an enzyme immunoassay (=EIA). From the measured LTB4 values, the inhibitory activity of the test substances in human whole blood was calculated in % inhibition of LTB4 synthesis in comparison to the control samples containing no test substance.

The record followed here is US5474988A, “5-phenylpyrrolo-1,4-benzoxazine and 5-phenylpyrrolo-1,4-benzothiazine compounds, process and intermediates for their production and pharmaceutical compositions containing them” (Kali-Chemie Pharma GmbH, priority 1993, dated 1995).

With `Cc1ccnc(N2CCN(CCC3Cn4c(-c5ccc(O)cc5)c(C)c5c(O)ccc(c54)O3)CC2)c1` (centres unmarked) [Example 4, 2,3-Dihydro-7-hydroxy-5-(4-hydroxyphenyl)-6-methyl-2-[2-(4-(4-methylpyridin-2-yl)piperazin-1-yl)ethyl]pyrrolo[1,2,3-de]-1,4-benzoxazine], the inhibition at 10 µM stood at 86%.
For `Cc1ccnc(N2CCN(C(=O)CCC3Cn4c(-c5cc(C)c(O)c(C)c5)c(C)c5c(O)ccc(c54)O3)CC2)c1` (centres unmarked) [Example 67] the value was 100%.
`Cc1ccnc(N2CCN(C(=O)CCC3Cn4c(-c5ccc(O)cc5)c(C)c5c(O)ccc(c54)O3)CC2)c1` (centres unmarked) [Example 69]: the inhibition at 10 µM came to 95%.
On to `Cc1cc(-c2c(C)c3c(O)ccc4c3n2CC(CCC(=O)N2CCN(c3ccccn3)CC2)O4)cc(C)c1O` (centres unmarked) [Example 71], for which the inhibition at 10 µM is 100%.
In the case of `COc1cc(-c2c(C)c3c(O)ccc4c3n2CC(CCC(=O)N2CCN(c3ccccn3)CC2)O4)cc(C)c1O` (centres unmarked) [Example 72], the inhibition at 10 µM stood at 95%.
In the case of `Cc1ccnc(N2CCN(CCCC3Cn4c(-c5cc(C)c(O)c(C)c5)c(C)c5c(O)ccc(c54)O3)CC2)c1` (centres unmarked) [Example 73], the inhibition at 10 µM was determined as 100%.
The same measure for `Cc1cccnc1N1CCN(CCCC2Cn3c(-c4cc(C)c(O)c(C)c4)c(C)c4c(O)ccc(c43)O2)CC1` (centres unmarked) [Example 74]: 100%.
The same measure for `Cc1cc(-c2c(C)c3c(OCc4ccccc4)ccc4c3n2CC(CCC(=O)N2CCN(c3ccccn3)CC2)O4)cc(C)c1O` (centres unmarked) [Example 75]: 96%.
